# Measured values reported in patent US9017681B2, “Adenylyl cyclases as novel targets for antibactrial interventions” (Cornell Research Foundation, Inc., priority 2007, dated 2015).
# Where two headings read alike, the source gives them in different places.
# Target: T1, human sAC (Homo sapiens, UniProt Q96PN6)
# T1 construct: made in house
# T1 sequence (Q96PN6 1-469 limits assumed): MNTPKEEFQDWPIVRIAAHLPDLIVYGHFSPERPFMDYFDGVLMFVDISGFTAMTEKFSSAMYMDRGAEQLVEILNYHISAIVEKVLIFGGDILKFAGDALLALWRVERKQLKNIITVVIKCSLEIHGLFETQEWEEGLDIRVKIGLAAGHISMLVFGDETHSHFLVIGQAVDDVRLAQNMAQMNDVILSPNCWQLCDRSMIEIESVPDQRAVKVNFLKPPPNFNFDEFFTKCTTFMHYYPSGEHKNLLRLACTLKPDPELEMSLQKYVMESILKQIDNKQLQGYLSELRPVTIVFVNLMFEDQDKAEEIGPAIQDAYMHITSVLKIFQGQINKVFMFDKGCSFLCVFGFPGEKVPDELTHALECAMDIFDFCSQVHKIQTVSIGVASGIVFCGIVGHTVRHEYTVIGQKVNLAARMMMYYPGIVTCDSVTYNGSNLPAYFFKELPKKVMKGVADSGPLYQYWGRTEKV
# Test: in vitro adenylyl cyclase assay with purified human sAC protein (cAMP by Correlate-EIA)
# Type: biochemical
# Experimental: Purified human sAC protein was used in an in vitro adenylyl cyclase assay. Purification of the protein is described in detail in Litvin et al. 2003. (J. Biol. Chem. 278:15922-15926). This paper also describes the general conditions for a sAC cyclase assay. The specific conditions for the in vitro assay are as follows.
# For basal sAC activity, an assay master mixture with sufficient volume for all reactions was prepared containing:
# 100 U/ml creatine phosphokinase (CPK)
# An aliquot of the master mixture was added to the purified human sAC. The assay mixture also included the indicated concentration of KH compound, or an equivalent volume of vehicle (i.e., DMSO) as control. The reaction was started by adding 5 mM ATP (total assay volume=100 μL). The reaction mixture was incubated at 30° C. for 30 minutes and then stopped by adding 100 μl […]. Stimulated assay conditions involve adding 40 mM bicarbonate and 5 mM CaCl2 to the above master mixture.
# Cyclic AMP levels were measured in each sample using the Correlate-EIA Direct Cyclic AMP assay kit from Assay Designs as per manufacturers instructions.
# [1] = 100 μM of compound, BASAL human sAC in vitro activity, read-out: % Inhibition (100 μM), hsACt-Basal
# [2] = 100 μM of compound, stimulated human sAC in vitro activity, read-out: % Inhibition (100 μM), hsACt-Stim.
# [3] = BASAL activity of human sAC in vitro (just Mg-ATP, no calcium or bicarbonate), read-out: hsACt-Basal approximate IC50 (or the dose range where the IC50 should lie)
# [4] = stimulated activity of human sAC in vitro (calcium and bicarbonate stimulated), read-out: hsACt-Stim. approximate IC50 (or the dose range where the IC50 should lie)
# [5] = 100 μM of compound, stimulated human sAC in vitro activity
SMILES,inhibition at 100 µM [1] [%],inhibition at 100 µM [2] [%],IC50 [3] [µM],IC50 [4] [µM],"Activation, printed in column % Inhibition (100 μM), hsACt-Basal (100 μM of compound, BASAL human sAC in vitro activity)","Activation, printed in column % Inhibition (100 μM), hsACt-Stim. [5]","% Inhibition (100 μM), hsACt-Basal (100 μM of compound, BASAL human sAC in vitro activity, 100 µM) [%]","% Inhibition (100 μM), hsACt-Stim. (100 μM of compound, stimulated human sAC in vitro activity, 100 µM) [%]","Activation in words, printed in column % Inhibition (100 μM), hsACt-Stim. (@ 100, stimulated human sAC in vitro activity)"
O=C(CSc1nc2ccccc2[nH]1)N/N=C/c1ccccc1C(=O)O [KH7.112],0,0,> 100,> 100,,,,,
C/C(=N/NC(=O)CSc1nc2ccccc2[nH]1)c1ccc(-c2ccccc2)cc1 [KH7.113],80,80,10 to 100,10 to 100,,,,,
C/C(=N/NC(=O)CSc1nc2ccccc2[nH]1)c1ccc(Cl)c(Cl)c1 [KH7.115],80,80,10 to 100,10 to 100,,,,,
C/C(=N/NC(=O)CSc1nc2ccccc2[nH]1)c1cccnc1 [KH7.116],,,,0.1 to 1,Activation 30%,Activation 50%,,,
C/C(=N/NC(=O)CSc1nc2ccccc2[nH]1)c1ccc(F)cc1 [KH7.118],0,0,> 100,> 100,,,,,
C/C(=N/NC(=O)CSc1nc2ccccc2[nH]1)c1cccc(Br)c1 [KH7.119],60,80,10 to 100,10 to 100,,,,,
O=C(CSc1nc2ccccc2[nH]1)N/N=C/c1ccccc1I [KH7.121],90,90,10 to 100,10 to 100,,,,,
O=C(CSc1nc2ccccc2[nH]1)N/N=C/c1ccc([N+](=O)[O-])cc1 [KH7.122],50,50,,,,,,,
O=C(CSc1nc2ccccc2[nH]1)N/N=C/c1cccnc1 [KH7.123],0,0,> 100,> 100,,,,,
COc1cc(/C=N/NC(=O)CSc2nc3ccccc3[nH]2)cc(OC)c1OC(C)=O [KH7.124],40,30,> 100,> 100,,,,,
O=C(CSc1nc2ccccc2[nH]1)N/N=C/c1cccc2ccccc12 [KH7.126],40,50,> 100,10 to 100,,,,,
O=C(CSc1nc2ccccc2[nH]1)N/N=C/c1cccc(Cl)c1 [KH7.128],50,50,,,,,,,
O=C(CSc1nc2ccccc2[nH]1)N/N=C/c1c(Cl)cccc1Cl [KH7.130],50,50,,,,,,,
O=C(CSc1nc2ccccc2[nH]1)N/N=C/c1ccccc1Br [KH7.131],60,60,10 to 100,10 to 100,,,,,
COc1ccc(/C=N/NC(=O)CSc2nc3ccccc3[nH]2)cc1 [KH7.132],10,0,> 100,> 100,,,,,
O=C(CSc1nc2ccccc2[nH]1)N/N=C/c1ccccc1Cl [KH7.133],60,,10 to 100,,,,,,
Cc1ccc(/C=N/NC(=O)CSc2nc3ccccc3[nH]2)cc1 [KH7.134],0,0,> 100,> 100,,,,,
CC(C)c1ccc(/C=N/NC(=O)CSc2nc3ccccc3[nH]2)cc1 [KH7.135],50,0,,> 100,,,,,
CCN(CC)c1ccc(/C=N/NC(=O)CSc2nc3ccccc3[nH]2)cc1 [KH7.136],80,40,10 to 100,> 100,,,,,
O=C(CSc1nc2ccccc2[nH]1)N/N=C/c1ccc(Cl)cc1 [KH7.137],0,,> 100,30 to 100,,Activation 100%,,,
C/C(=N\NC(=O)CSc1nc2ccccc2[nH]1)c1ccc([N+](=O)[O-])cc1 [KH7.138],30,25,> 100,> 100,,,,,
Cn1c(SCC(=O)N/N=C/c2cc(Br)ccc2O)nc2ccccc21 [KH7.139],75,75,1 to 10,1 to 10,,,70,70,
Cn1c(SCC(=O)N/N=C/c2ccccn2)nc2ccccc21 [KH7.140],0,0,> 100,> 100,,,,,

# Results, then the compound that gave them:
inhibition at 100 µM [1] [%],inhibition at 100 µM [2] [%],IC50 [3] [µM],IC50 [4] [µM],"Activation, printed in column % Inhibition (100 μM), hsACt-Basal (100 μM of compound, BASAL human sAC in vitro activity)","Activation, printed in column % Inhibition (100 μM), hsACt-Stim. [5]","% Inhibition (100 μM), hsACt-Basal (100 μM of compound, BASAL human sAC in vitro activity, 100 µM) [%]","% Inhibition (100 μM), hsACt-Stim. (100 μM of compound, stimulated human sAC in vitro activity, 100 µM) [%]","Activation in words, printed in column % Inhibition (100 μM), hsACt-Stim. (@ 100, stimulated human sAC in vitro activity)",SMILES
80,80,1 to 10,1,,,,,,O=C(CSc1nc2ccccc2n1Cc1ccccc1)N/N=C/c1cc(Br)ccc1O [KH7.141]
0,,> 100,1 to 10,,,,,Activation @ 100,Cc1ccc(Cn2c(SCC(=O)N/N=C/c3ccncc3)nc3ccccc32)cc1 [KH7.142]
75,75,1,1,,,,,,Cc1ccc(Cn2c(SCC(=O)N/N=C/c3cc(Br)ccc3O)nc3ccccc32)cc1 [KH7.143]
70,80,1,1,,,,,,O=C(CSc1nc2ccccc2n1Cc1ccc(Cl)cc1)N/N=C\c1cc(Br)ccc1O [KH7.144]
0,20,> 100,> 100,,,,,,CCOc1ccc(/C=N/NC(=O)CSc2nc3ccccc3[nH]2)cc1OC [KH7.145]
50,40,,> 100,,,,,,O=C(CSc1nc2ccccc2[nH]1)N/N=C/c1ccc(Cl)c([N+](=O)[O-])c1 [KH7.146]
90,85,1,1,,,,,,O=C(CSc1nc2ccccc2[nH]1)N/N=C/c1cc(Br)cc(Br)c1O [KH7.149]
0,0,> 100,> 100,,,,,,O=C(CSc1nc2ccccc2[nH]1)N/N=C/c1ccc(C(F)(F)F)cc1 [KH7.150]
75,50,10 to 100,10 to 100,,,,,,COc1ccc(/C=N/NC(=O)CSc2nc3ccccc3[nH]2)cc1Br [KH7.151]
60,,10 to 100,,,,,,,O=C(CSc1nc2ccccc2[nH]1)N/N=C/c1cc(Br)ccc1F [KH7.152]
0,0,> 100,> 100,,,,,,O=C(CSc1nc2ccccc2[nH]1)N/N=C/c1cccc(F)c1 [KH7.153]
100,85,0.1 to 1,0.1 to 1,,,,,,O=C(CSc1nc2ccccc2[nH]1)N/N=C/c1cc(I)cc(I)c1O [KH7.154]
0,0,> 100,> 100,,,,,,O=C(CSc1nc2ccccc2[nH]1)N/N=C/c1cc([N+](=O)[O-])ccc1Cl [KH7.155]
